How the values were obtained:
Type in all cases: physicochemical
[1] = DVS (dynamic vapor sorption) characterization
Method: DVS refers to dynamic vapor sorption: The measurement was conducted with a Surface Measurement Systems advantage 2 at 25° C., starting from 50% humidity in humidity range of 0%-95% with a step size of 10%. The judging criterion was that the mass change of each gradient dM/dT is less than 0.002 and TMAX is less than 360 min in two circles.

[2] = Long-term/accelerated stability study of crystalline form α of hydrochloride and crystalline form I of hydrobromide
Method: The crystalline form α of the hydrochloride of the compound of formula II was let stand in conditions of 25° C./60% RH and 40° C./75% RH to examine its stability.
The crystalline form I of the hydrobromide of the compound of formula II was let stand in conditions of 25° C./60% RH and 40° C./75% RH to examine its stability.

[3] = Influencing factor study of crystalline form α of hydrochloride and crystalline form I of hydrobromide
Method: Sample of the crystalline form α of the hydrochloride and the crystalline form I of the hydrobromide of the compound of formula II were let stand open to examine the stability of the samples in conditions of illumination (4500 Lux), high temperature (40° C. and 60° C.) and high humidity (RH 75% and RH 92.5%) in a period of 30 days.

Br.NC(=O)C[C@H](c1ccc(S(=O)(=O)CC2CC2)cc1)c1nc2cc(-c3ccccc3OC(F)F)c(Cl)cc2[nH]1
Crystalline form before and after DVS (XRPD comparison) ([1]; 0-95% humidity change): crystalline form did not change during DVS | DVS weight change ([1]; 25° C., 20.0% RH to 80.0% RH): 0.636% | Hygroscopicity ([1]; DVS, 25° C., 20.0% RH to 80.0% RH): slightly hygroscopic | Vapor sorption ([1]; accelerated test condition, 70% humidity): about 0.702% | Vapor sorption ([1]; extreme condition, 90% humidity): about 1.094% | Vapor sorption ([1]; normal storage condition, 60% humidity/25° C.): about 0.589% | Chiral purity (%) ([2]; 25° C., 60% RH, Day 7): 99.297% | Color and appearance ([2]; 25° C., 60% RH, Day 7): White solid | Crystalline form ([2]; 25° C., 60% RH, Day 7): Not changed | Main peak purity (%) ([2]; 25° C., 60% RH, Day 7): 97.689% | Chiral purity (%) ([2]; 25° C., 60% RH, Day 14): 99.198% | Color and appearance ([2]; 25° C., 60% RH, Day 14): White solid | Crystalline form ([2]; 25° C., 60% RH, Day 14): Not changed | Main peak purity (%) ([2]; 25° C., 60% RH, Day 14): 97.697% | Bromide ion content (%) ([2]; 25° C., 60% RH, Month 1): 11.20% | Chiral purity (%) ([2]; 25° C., 60% RH, Month 1): 99.255% | Color and appearance ([2]; 25° C., 60% RH, Month 1): White solid | Crystalline form ([2]; 25° C., 60% RH, Month 1): Not changed | Main peak purity (%) ([2]; 25° C., 60% RH, Month 1): 97.649% | Bromide ion content (%) ([2]; 25° C., 60% RH, Month 2): 11.05% | Chiral purity (%) ([2]; 25° C., 60% RH, Month 2): 99.363% | Color and appearance ([2]; 25° C., 60% RH, Month 2): White solid | Crystalline form ([2]; 25° C., 60% RH, Month 2): Not changed | Main peak purity (%) ([2]; 25° C., 60% RH, Month 2): 97.661% | Chiral purity (%) ([2]; 25° C., 60% RH, Month 3): 99.283% | Color and appearance ([2]; 25° C., 60% RH, Month 3): White solid | Crystalline form ([2]; 25° C., 60% RH, Month 3): Not changed | Main peak purity (%) ([2]; 25° C., 60% RH, Month 3): 97.552% | Bromide ion content (%) ([2]; 25° C., 60% RH, Month 6): 11.82% | Chiral purity (%) ([2]; 25° C., 60% RH, Month 6): 99.228% | Color and appearance ([2]; 25° C., 60% RH, Month 6): White solid | Crystalline form ([2]; 25° C., 60% RH, Month 6): Not changed | Main peak purity (%) ([2]; 25° C., 60% RH, Month 6): 96.981% | Chiral purity (%) ([2]; 40° C., 75% RH, Day 7): 99.295% | Color and appearance ([2]; 40° C., 75% RH, Day 7): White solid | Crystalline form ([2]; 40° C., 75% RH, Day 7): Not changed | Main peak purity (%) ([2]; 40° C., 75% RH, Day 7): 97.661% | Chiral purity (%) ([2]; 40° C., 75% RH, Day 14): 99.174% | Color and appearance ([2]; 40° C., 75% RH, Day 14): White solid | Crystalline form ([2]; 40° C., 75% RH, Day 14): Not changed | Main peak purity (%) ([2]; 40° C., 75% RH, Day 14): 97.660% | Bromide ion content (%) ([2]; 40° C., 75% RH, Month 1): 11.49% | Chiral purity (%) ([2]; 40° C., 75% RH, Month 1): 99.262% | Color and appearance ([2]; 40° C., 75% RH, Month 1): White solid | Crystalline form ([2]; 40° C., 75% RH, Month 1): Not changed | Main peak purity (%) ([2]; 40° C., 75% RH, Month 1): 97.558% | Bromide ion content (%) ([2]; 40° C., 75% RH, Month 2): 10.93% | Chiral purity (%) ([2]; 40° C., 75% RH, Month 2): 99.328% | Color and appearance ([2]; 40° C., 75% RH, Month 2): White solid | Crystalline form ([2]; 40° C., 75% RH, Month 2): Not changed | Main peak purity (%) ([2]; 40° C., 75% RH, Month 2): 97.561% | Chiral purity (%) ([2]; 40° C., 75% RH, Month 3): 99.275% | Color and appearance ([2]; 40° C., 75% RH, Month 3): White solid | Crystalline form ([2]; 40° C., 75% RH, Month 3): Not changed | Main peak purity (%) ([2]; 40° C., 75% RH, Month 3): 97.259% | Bromide ion content (%) ([2]; 40° C., 75% RH, Month 6): 11.91% | Chiral purity (%) ([2]; 40° C., 75% RH, Month 6): 99.199% | Color and appearance ([2]; 40° C., 75% RH, Month 6): White solid | Crystalline form ([2]; 40° C., 75% RH, Month 6): Not changed | Main peak purity (%) ([2]; 40° C., 75% RH, Month 6): 96.412% | Bromide ion content (%) ([2]; Initial, 0): 11.75% | Chiral purity (%) ([2]; Initial, 0): 99.298% | Color and appearance ([2]; Initial, 0): White solid | Crystalline form ([2]; Initial, 0): Crystalline | Main peak purity (%) ([2]; Initial, 0): 97.689% | Stability (conclusion of long-term/accelerated study) ([2]; long term and acceleration, 6 months): good physical and chemical stability | Chiral purity (%) ([3]; 40° C., 7 days): 99.293% | Color and appearance ([3]; 40° C., 7 days): White solid | Crystalline form ([3]; 40° C., 7 days): Not changed | Main peak purity (%) ([3]; 40° C., 7 days): 97.716% | Chiral purity (%) ([3]; 40° C., 14 days): 99.165% | Color and appearance ([3]; 40° C., 14 days): White solid | Crystalline form ([3]; 40° C., 14 days): Not changed | Main peak purity (%) ([3]; 40° C., 14 days): 97.727% | Bromide ion content (%) ([3]; 40° C., 30 days): 11.73% | Chiral purity (%) ([3]; 40° C., 30 days): 99.251% | Color and appearance ([3]; 40° C., 30 days): White solid | Crystalline form ([3]; 40° C., 30 days): Not changed | Main peak purity (%) ([3]; 40° C., 30 days): 97.644% | Chiral purity (%) ([3]; 60° C., 7 days): 99.299% | Color and appearance ([3]; 60° C., 7 days): White solid | Crystalline form ([3]; 60° C., 7 days): Not changed | Main peak purity (%) ([3]; 60° C., 7 days): 97.645% | Chiral purity (%) ([3]; 60° C., 14 days): 99.187% | Color and appearance ([3]; 60° C., 14 days): White solid | Crystalline form ([3]; 60° C., 14 days): Not changed | Main peak purity (%) ([3]; 60° C., 14 days): 97.671% | Bromide ion content (%) ([3]; 60° C., 30 days): 11.50% | Chiral purity (%) ([3]; 60° C., 30 days): 99.263% | Color and appearance ([3]; 60° C., 30 days): White solid | Crystalline form ([3]; 60° C., 30 days): Not changed | Main peak purity (%) ([3]; 60° C., 30 days): 97.630% | Chiral purity (%) ([3]; 75% RH, 7 days): 99.293% | Color and appearance ([3]; 75% RH, 7 days): White solid | Crystalline form ([3]; 75% RH, 7 days): Not changed | Main peak purity (%) ([3]; 75% RH, 7 days): 97.687% | Chiral purity (%) ([3]; 75% RH, 14 days): 99.179% | Color and appearance ([3]; 75% RH, 14 days): White solid | Crystalline form ([3]; 75% RH, 14 days): Not changed | Main peak purity (%) ([3]; 75% RH, 14 days): 97.705% | Bromide ion content (%) ([3]; 75% RH, 30 days): 11.73% | Chiral purity (%) ([3]; 75% RH, 30 days): 99.274% | Color and appearance ([3]; 75% RH, 30 days): White solid | Crystalline form ([3]; 75% RH, 30 days): Not changed | Main peak purity (%) ([3]; 75% RH, 30 days): 97.676% | Chiral purity (%) ([3]; 92.5% RH, 7 days): 99.294% | Color and appearance ([3]; 92.5% RH, 7 days): White solid | Crystalline form ([3]; 92.5% RH, 7 days): Not changed | Main peak purity (%) ([3]; 92.5% RH, 7 days): 97.706% | Chiral purity (%) ([3]; 92.5% RH, 14 days): 99.175% | Color and appearance ([3]; 92.5% RH, 14 days): White solid | Crystalline form ([3]; 92.5% RH, 14 days): Not changed | Main peak purity (%) ([3]; 92.5% RH, 14 days): 97.701% | Bromide ion content (%) ([3]; 92.5% RH, 30 days): 11.55% | Chiral purity (%) ([3]; 92.5% RH, 30 days): 99.268% | Color and appearance ([3]; 92.5% RH, 30 days): White solid | Crystalline form ([3]; 92.5% RH, 30 days): Not changed | Main peak purity (%) ([3]; 92.5% RH, 30 days): 97.653% | Chiral purity (%) ([3]; 4500 Lux, 7 days): 99.297% | Color and appearance ([3]; 4500 Lux, 7 days): White solid | Crystalline form ([3]; 4500 Lux, 7 days): Not changed | Main peak purity (%) ([3]; 4500 Lux, 7 days): 97.683% | Chiral purity (%) ([3]; 4500 Lux, 14 days): 99.152% | Color and appearance ([3]; 4500 Lux, 14 days): White solid | Crystalline form ([3]; 4500 Lux, 14 days): Not changed | Main peak purity (%) ([3]; 4500 Lux, 14 days): 97.660% | Bromide ion content (%) ([3]; 4500 Lux, 30 days): 11.18% | Chiral purity (%) ([3]; 4500 Lux, 30 days): 99.243% | Color and appearance ([3]; 4500 Lux, 30 days): White solid | Crystalline form ([3]; 4500 Lux, 30 days): Not changed | Main peak purity (%) ([3]; 4500 Lux, 30 days): 97.626% | Bromide ion content (%) ([3]; Initial, 0 days): 11.75% | Chiral purity (%) ([3]; Initial, 0 days): 99.298% | Color and appearance ([3]; Initial, 0 days): White solid | Crystalline form ([3]; Initial, 0 days): Crystalline | Main peak purity (%) ([3]; Initial, 0 days): 97.689% | Stability (conclusion of influencing factor study) ([3]; illumination, 40° C. and 60° C., high humidities of 75% and 92.5%): good physical and chemical stabilities
